Results on 38 molecules are retold here after ChEMBL document CHEMBL1777688, “TRPV1 modulators: structure-activity relationships using a rational combinatorial approach” (Bioorg Med Chem Lett, 2011).

Common to all, as to type: cell-based
Holding throughout (settings): Oocyte

Assay [1] addresses Glutamate NMDA receptor; GRIN1/GRIN2A (Homo sapiens) (UniProt Q05586+Q12879). Nature of the assay: Blockade of human recombinant NR1/NR2A expressed in xenopus oocytes assessed as inhibition of L-glutamate/glycine-induced whole-cell current at 10 uM at holding potential of -60 mV by electrophysiological assay relative to control.
Assay [2] addresses Transient receptor potential cation channel subfamily V member 1 (Rattus norvegicus) (UniProt O35433). Briefly: Blockade of rat recombinant TRPV1 expressed in xenopus oocytes assessed as inhibition of capsaicin-induced whole-cell current at 10 uM at holding potential of -60 mV by electrophysiological assay relative to control.
Assay [3] has the same target. Briefly: Blockade of rat recombinant TRPV1 expressed in xenopus oocytes assessed as inhibition of capsaicin-induced whole-cell current at 1 uM at holding potential of -60 mV by electrophysiological assay relative to control.

Transient receptor potential cation channel subfamily V member 1 (Rattus norvegicus), sequence (O35433 whole entry): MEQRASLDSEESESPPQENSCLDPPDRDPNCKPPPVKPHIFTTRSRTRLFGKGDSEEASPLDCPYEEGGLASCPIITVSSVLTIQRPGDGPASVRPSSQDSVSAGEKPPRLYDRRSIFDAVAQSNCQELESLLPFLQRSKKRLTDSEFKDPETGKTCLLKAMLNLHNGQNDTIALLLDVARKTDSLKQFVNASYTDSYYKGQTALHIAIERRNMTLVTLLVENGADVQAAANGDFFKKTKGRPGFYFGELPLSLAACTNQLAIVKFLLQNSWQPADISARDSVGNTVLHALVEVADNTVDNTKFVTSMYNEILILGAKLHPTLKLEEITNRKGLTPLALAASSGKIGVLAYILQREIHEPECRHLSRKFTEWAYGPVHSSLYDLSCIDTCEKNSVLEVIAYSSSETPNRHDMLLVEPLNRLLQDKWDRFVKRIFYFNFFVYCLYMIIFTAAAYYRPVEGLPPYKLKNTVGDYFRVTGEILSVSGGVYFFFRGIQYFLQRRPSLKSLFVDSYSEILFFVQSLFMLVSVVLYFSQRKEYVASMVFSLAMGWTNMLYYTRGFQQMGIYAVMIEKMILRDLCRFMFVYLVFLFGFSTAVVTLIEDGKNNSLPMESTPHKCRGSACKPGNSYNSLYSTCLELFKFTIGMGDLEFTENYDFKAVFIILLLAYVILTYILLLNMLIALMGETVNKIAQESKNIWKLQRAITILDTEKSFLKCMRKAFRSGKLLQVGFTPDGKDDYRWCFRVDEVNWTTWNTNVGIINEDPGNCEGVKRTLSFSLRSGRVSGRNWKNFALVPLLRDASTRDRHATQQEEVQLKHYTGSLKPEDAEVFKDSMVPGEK

Regarding `CN(C)C(=NCCCC[C@@H]1NC(=O)N([C@@H](Cc2c(Sc3ccccc3[N+](=O)[O-])[nH]c3ccccc23)C(N)=O)C1=O)N(C)C`, the figures for the inhibition in assay [1] and in assay [2] were 9.3% and 13%, respectively.

For the molecule `NCCCC[C@H](N)C(=O)N[C@@H](Cc1c(Sc2ccccc2[N+](=O)[O-])[nH]c2ccccc12)C(N)=O`, the inhibition turned out to be 13.5% in assay [1] and 26.3% in assay [2].

Regarding `CC(=O)N[C@@H](CCCCN=C(N(C)C)N(C)C)C(=O)N[C@@H](Cc1c(Sc2ncccc2[N+](=O)[O-])[nH]c2ccccc12)C(N)=O`, the figures for the inhibition in assay [1] and in assay [2] were 20.6% and 12%, respectively.

Turning to `C[N+](C)(C)CCCC[C@@H]1NC(=O)N([C@@H](Cc2c(Sc3ccccc3[N+](=O)[O-])[nH]c3ccccc23)C(N)=O)C1=O`, the values for the inhibition in assay [3], in assay [1] and in assay [2] were 17.4%, 9.2% and 66.5%, respectively.

In the case of `C[N+](C)(C)CCCC[C@@H]1NC(=O)N([C@@H](Cc2c(Sc3ncccc3[N+](=O)[O-])[nH]c3ccccc23)C(N)=O)C1=O`, the inhibition in assay [1] is 20.6%; in assay [2] it was 19.9%.

As to `NC(=O)[C@H](Cc1c(Sc2ncccc2[N+](=O)[O-])[nH]c2ccccc12)N1C(=O)N[C@@H](CCCCN=C(N2CCCC2)N2CCCC2)C1=O`, the inhibition turned out to be 12.9% in assay [1] and 52.5% in assay [2].

`CC(=O)N[C@@H](CN)C(=O)N[C@@H](Cc1c(Sc2ccccc2[N+](=O)[O-])[nH]c2ccccc12)C(N)=O`: the inhibition in assay [1] was 27%; in assay [2], 14.6%.

In the case of `NC(=O)[C@H](Cc1c(Sc2ccccc2[N+](=O)[O-])[nH]c2ccccc12)NC(=O)[C@H](CCCCN=C(N1CCCC1)N1CCCC1)N=C(N1CCCC1)N1CCCC1`, the inhibition came out at 27.3% in assay [3], 6.8% in assay [1] and 97.2% in assay [2].

In the case of `NCCCC[C@H](N)C(=O)N[C@@H](Cc1c(Sc2ncccc2[N+](=O)[O-])[nH]c2ccccc12)C(N)=O`, the inhibition in assay [1] is 23.6%; in assay [2], 17%.

As to `NC(=O)[C@H](Cc1c(Sc2ncccc2[N+](=O)[O-])[nH]c2ccccc12)NC(=O)[C@@H](N)CCCN=C(N)N`, the inhibition in assay [1] was 20.6%; in assay [2], 44.8%.

With `CC(=O)N[C@@H](CCCC[N+](C)(C)C)C(=O)N[C@@H](Cc1c(Sc2ccccc2[N+](=O)[O-])[nH]c2ccccc12)C(N)=O`, the inhibition in assay [1] was found to be 32.2%; in assay [2], 29%.

For `NC(=O)[C@H](Cc1c(Sc2ccccc2[N+](=O)[O-])[nH]c2ccccc12)N1C(=O)N[C@@H](CCCCN=C(N2CCCC2)N2CCCC2)C1=O`, the figures for the inhibition in assay [1] and in assay [2] were 10.7% and 60.4%, respectively.

For `CC(=O)N[C@@H](CCCCN=C(N1CCCC1)N1CCCC1)C(=O)N[C@@H](Cc1c(Sc2ccccc2[N+](=O)[O-])[nH]c2ccccc12)C(N)=O`, the inhibition in assay [1] was determined as 6.4%; in assay [2], 44%.

On to `NCCCC[C@@H]1NC(=O)N([C@@H](Cc2c(Sc3ncccc3[N+](=O)[O-])[nH]c3ccccc23)C(N)=O)C1=O`, for which the values for the inhibition in assay [1] and in assay [2] were 26.8% and 24.6%, respectively.

With `NC(=O)[C@H](Cc1c(Sc2ccccc2[N+](=O)[O-])[nH]c2ccccc12)NC(=O)[C@@H](N)CCCN=C(N)N`, the inhibition in assay [3] was found to be 18.7%; in assay [1], 7.7%; in assay [2], 62.8%.

As for `NC(=O)[C@H](Cc1c(Sc2ccccc2[N+](=O)[O-])[nH]c2ccccc12)N1C(=O)N[C@@H](CCCN=C(N)N)C1=O`, the inhibition in assay [1] was 20.2%; in assay [2], 50.2%.

`CC(=O)N[C@@H](CN=C(N1CCCC1)N1CCCC1)C(=O)N[C@@H](Cc1c(Sc2ccccc2[N+](=O)[O-])[nH]c2ccccc12)C(N)=O`: the inhibition came to 30.3% in assay [1] and 49.9% in assay [2].

`CC(=O)N[C@@H](CCCCN=C(N(C)C)N(C)C)C(=O)N[C@@H](Cc1c(Sc2ccccc2[N+](=O)[O-])[nH]c2ccccc12)C(N)=O`: the results for the inhibition in assay [1] and in assay [2] were 6.1% and 19.9%, respectively.

As to `CC(=O)N[C@@H](CCCN=C(N)N)C(=O)N[C@@H](Cc1c(Sc2ncccc2[N+](=O)[O-])[nH]c2ccccc12)C(N)=O`, the inhibition is 26.3% in assay [1] and 23.9% in assay [2].

For `CC(=O)N[C@@H](CCCN=C(N)N)C(=O)N[C@@H](Cc1c(Sc2ccccc2[N+](=O)[O-])[nH]c2ccccc12)C(N)=O`, the results for the inhibition in assay [1] and in assay [2] were 25.8% and 29.2%, respectively.

Turning to `CC(=O)N[C@@H](CCCCN)C(=O)N[C@@H](Cc1c(Sc2ncccc2[N+](=O)[O-])[nH]c2ccccc12)C(N)=O`, the values for the inhibition in assay [1] and in assay [2] were 13.6% and 12.7%, respectively.

With `NCC[C@H](N)C(=O)N[C@@H](Cc1c(Sc2ccccc2[N+](=O)[O-])[nH]c2ccccc12)C(N)=O`, the results for the inhibition in assay [1] and in assay [2] were 29.7% and 20.6%, respectively.

With `CC(=O)N[C@@H](CCCCN)C(=O)N[C@@H](Cc1c(Sc2ccccc2[N+](=O)[O-])[nH]c2ccccc12)C(N)=O`, the inhibition in assay [1] was 15.4%; in assay [2], 14.3%.

`CC(=O)N[C@@H](CCN=C(N1CCCC1)N1CCCC1)C(=O)N[C@@H](Cc1c(Sc2ccccc2[N+](=O)[O-])[nH]c2ccccc12)C(N)=O`: the inhibition in assay [1] is 9.6%; in assay [2], 42.4%.

With `NCC[C@@H]1NC(=O)N([C@@H](Cc2c(Sc3ccccc3[N+](=O)[O-])[nH]c3ccccc23)C(N)=O)C1=O`, the values for the inhibition in assay [1] and in assay [2] were 16% and 11%, respectively.

Take `NC(=O)[C@H](Cc1c(Sc2ncccc2[N+](=O)[O-])[nH]c2ccccc12)N1C(=O)N[C@@H](CCCN=C(N)N)C1=O`: the figures for the inhibition in assay [1] and in assay [2] were 24.2% and 54.3%, respectively.

`NC[C@@H]1NC(=O)N([C@@H](Cc2c(Sc3ccccc3[N+](=O)[O-])[nH]c3ccccc23)C(N)=O)C1=O`: the inhibition in assay [1] was 18.4%; in assay [2], 29.9%.

Regarding `CN(C)C(=NCCCC[C@H](N)C(=O)N[C@@H](Cc1c(Sc2ccccc2[N+](=O)[O-])[nH]c2ccccc12)C(N)=O)N(C)C`, the inhibition in assay [3] came out at 21.1%; in assay [1] it was 69.7%; in assay [2], 49.7%.

`CN(C)C(=NCCCC[C@@H]1NC(=O)N([C@@H](Cc2c(Sc3ncccc3[N+](=O)[O-])[nH]c3ccccc23)C(N)=O)C1=O)N(C)C`: the inhibition in assay [1] was determined as 10.8%; in assay [2], 40.9%.

On to `NC(=O)[C@H](Cc1c(Sc2ccccc2[N+](=O)[O-])[nH]c2ccccc12)NC(=O)[C@@H](N)CCCCN=C(N1CCCC1)N1CCCC1`, for which the figures for the inhibition in assay [1] and in assay [2] were 8.3% and 55.8%, respectively.

With `NC(=O)[C@H](Cc1c(Sc2ccccc2[N+](=O)[O-])[nH]c2ccccc12)NC(=O)[C@@H](N)CCN=C(N1CCCC1)N1CCCC1`, the inhibition in assay [3] turned out to be 23.5%; in assay [1], 13.9%; in assay [2], 76.1%.

As for `NC(=O)[C@H](Cc1c(Sc2ccccc2[N+](=O)[O-])[nH]c2ccccc12)N1C(=O)N[C@@H](CCN=C(N2CCCC2)N2CCCC2)C1=O`, the inhibition in assay [1] stood at 12%; in assay [2] it was 56.3%.

Turning to `C[N+](C)(C)CCCC[C@H](N)C(=O)N[C@@H](Cc1c(Sc2ccccc2[N+](=O)[O-])[nH]c2ccccc12)C(N)=O`, the values for the inhibition in assay [1] and in assay [2] were 5.5% and 36.7%, respectively.

As to `CC(=O)N[C@@H](CCCCN=C(N1CCCC1)N1CCCC1)C(=O)N[C@@H](Cc1c(Sc2ncccc2[N+](=O)[O-])[nH]c2ccccc12)C(N)=O`, the results for the inhibition in assay [1] and in assay [2] were 30.2% and 16.6%, respectively.

`NC[C@H](N)C(=O)N[C@@H](Cc1c(Sc2ccccc2[N+](=O)[O-])[nH]c2ccccc12)C(N)=O`: the inhibition amounted to 24% in assay [1] and 39.3% in assay [2].

Regarding `NC(=O)[C@H](Cc1c(Sc2ccccc2[N+](=O)[O-])[nH]c2ccccc12)N1C(=O)N[C@@H](CN=C(N2CCCC2)N2CCCC2)C1=O`, the inhibition in assay [1] worked out at 43.7%; in assay [2] it was 51.3%.

As to `CC(=O)N[C@@H](CCN)C(=O)N[C@@H](Cc1c(Sc2ccccc2[N+](=O)[O-])[nH]c2ccccc12)C(N)=O`, the inhibition was determined as 27.2% in assay [1] and 27.6% in assay [2].

As for `NCCCC[C@@H]1NC(=O)N([C@@H](Cc2c(Sc3ccccc3[N+](=O)[O-])[nH]c3ccccc23)C(N)=O)C1=O`, the results for the inhibition in assay [1] and in assay [2] were 10.5% and 15.4%, respectively.
